Numbers after ± are expanded uncertainties.
Assay: xn = mol fraction of the nth substance listed
Settings: Vibrating tube method

O=S=O [sulfur dioxide] + O=C=O
Settings | mass density [kg/m3]
298.1 K, 34441 kPa, Liquid, x2 = 0.9478 | 1013.3 ± 0.6
298.1 K, 35077 kPa, Liquid, x2 = 0.9478 | 1015.5 ± 0.4
298.1 K, 35971 kPa, Liquid, x2 = 0.9478 | 1018.4 ± 0.4
298.1 K, 36493 kPa, Liquid, x2 = 0.9478 | 1020.2 ± 0.6
298.1 K, 37078 kPa, Liquid, x2 = 0.9478 | 1022 ± 0.4
298.11 K, 7503 kPa, Liquid, x2 = 0.9478 | 829.8 ± 1.6
298.11 K, 8006 kPa, Liquid, x2 = 0.9478 | 838.7 ± 1.6
298.11 K, 8501 kPa, Liquid, x2 = 0.9478 | 846.7 ± 1.4
298.11 K, 10505 kPa, Liquid, x2 = 0.9478 | 872.1 ± 1.2
298.11 K, 11004 kPa, Liquid, x2 = 0.9478 | 877.7 ± 1.2
298.11 K, 13010 kPa, Liquid, x2 = 0.9478 | 897.8 ± 1
298.11 K, 13500 kPa, Liquid, x2 = 0.9478 | 902.3 ± 1
298.11 K, 15011 kPa, Liquid, x2 = 0.9478 | 915.2 ± 0.8
298.11 K, 15500 kPa, Liquid, x2 = 0.9478 | 919.1 ± 0.8
298.11 K, 16016 kPa, Liquid, x2 = 0.9478 | 923 ± 0.8
298.11 K, 16534 kPa, Liquid, x2 = 0.9478 | 926.8 ± 0.8
298.11 K, 17024 kPa, Liquid, x2 = 0.9478 | 930.2 ± 0.8
298.11 K, 17492 kPa, Liquid, x2 = 0.9478 | 933.3 ± 0.8
298.11 K, 17978 kPa, Liquid, x2 = 0.9478 | 936.5 ± 0.8
298.11 K, 18527 kPa, Liquid, x2 = 0.9478 | 939.8 ± 0.8
298.11 K, 19025 kPa, Liquid, x2 = 0.9478 | 942.9 ± 0.8
298.11 K, 19477 kPa, Liquid, x2 = 0.9478 | 945.6 ± 0.8
298.11 K, 20051 kPa, Liquid, x2 = 0.9478 | 948.9 ± 0.8
298.11 K, 20492 kPa, Liquid, x2 = 0.9478 | 951.5 ± 0.8
298.11 K, 21501 kPa, Liquid, x2 = 0.9478 | 957 ± 0.6
298.11 K, 23041 kPa, Liquid, x2 = 0.9478 | 965.2 ± 0.6
298.11 K, 28987 kPa, Liquid, x2 = 0.9478 | 993.1 ± 0.6
298.11 K, 29543 kPa, Liquid, x2 = 0.9478 | 994.8 ± 0.6
298.11 K, 30013 kPa, Liquid, x2 = 0.9478 | 996.8 ± 0.6
298.11 K, 30505 kPa, Liquid, x2 = 0.9478 | 998.9 ± 0.6
298.11 K, 30997 kPa, Liquid, x2 = 0.9478 | 1000.7 ± 0.4
298.11 K, 31516 kPa, Liquid, x2 = 0.9478 | 1002.6 ± 0.4
298.11 K, 33949 kPa, Liquid, x2 = 0.9478 | 1011.6 ± 0.4
298.11 K, 35494 kPa, Liquid, x2 = 0.9478 | 1016.9 ± 0.4
298.11 K, 37574 kPa, Liquid, x2 = 0.9478 | 1023.6 ± 0.4
298.11 K, 37960 kPa, Liquid, x2 = 0.9478 | 1024.8 ± 0.4
298.11 K, 38545 kPa, Liquid, x2 = 0.9478 | 1026.6 ± 0.6
298.11 K, 38913 kPa, Liquid, x2 = 0.9478 | 1027.8 ± 0.6
298.11 K, 39519 kPa, Liquid, x2 = 0.9478 | 1029.5 ± 0.4
298.11 K, 40060 kPa, Liquid, x2 = 0.9478 | 1031.1 ± 0.6
298.12 K, 9508 kPa, Liquid, x2 = 0.9478 | 860.5 ± 1.2
298.12 K, 10039 kPa, Liquid, x2 = 0.9478 | 866.6 ± 1.2
298.12 K, 11504 kPa, Liquid, x2 = 0.9478 | 882.9 ± 1
298.12 K, 12000 kPa, Liquid, x2 = 0.9478 | 887.9 ± 1
298.12 K, 12503 kPa, Liquid, x2 = 0.9478 | 892.9 ± 1
298.12 K, 14006 kPa, Liquid, x2 = 0.9478 | 906.7 ± 1
298.12 K, 14500 kPa, Liquid, x2 = 0.9478 | 910.9 ± 1
298.12 K, 40411 kPa, Liquid, x2 = 0.9478 | 1032.1 ± 0.4
322.39 K, 392 kPa, Gas, x2 = 0.9503 | 7 ± 0.2
322.39 K, 1252 kPa, Gas, x2 = 0.9503 | 22.2 ± 0.2
322.39 K, 1707 kPa, Gas, x2 = 0.9503 | 31.7 ± 0.2
322.39 K, 2008 kPa, Gas, x2 = 0.9503 | 37 ± 0.2
322.39 K, 3512 kPa, Gas, x2 = 0.9503 | 70.9 ± 0.2
322.39 K, 4009 kPa, Gas, x2 = 0.9503 | 82.8 ± 0.4
322.39 K, 4519 kPa, Gas, x2 = 0.9503 | 96.9 ± 0.4
322.39 K, 5017 kPa, Gas, x2 = 0.9503 | 111.5 ± 0.4
322.39 K, 5528 kPa, Gas, x2 = 0.9503 | 127.9 ± 0.4
322.39 K, 6019 kPa, Gas, x2 = 0.9503 | 145.7 ± 0.4
322.39 K, 7009 kPa, Fluid (supercritical or subcritical phases), x2 = 0.9503 | 189.5 ± 0.8
322.39 K, 7504 kPa, Fluid (supercritical or subcritical phases), x2 = 0.9503 | 218.4 ± 1
322.4 K, 749 kPa, Gas, x2 = 0.9503 | 13.6 ± 0.2
322.4 K, 1002 kPa, Gas, x2 = 0.9503 | 17.9 ± 0.2
322.4 K, 1509 kPa, Gas, x2 = 0.9503 | 27.5 ± 0.2
322.4 K, 2511 kPa, Gas, x2 = 0.9503 | 48.1 ± 0.2
322.4 K, 3008 kPa, Gas, x2 = 0.9503 | 58.8 ± 0.2
322.41 K, 6514 kPa, Fluid (supercritical or subcritical phases), x2 = 0.9503 | 166.3 ± 0.6
322.41 K, 8037 kPa, Fluid (supercritical or subcritical phases), x2 = 0.9503 | 254.6 ± 1.5
322.41 K, 8521 kPa, Fluid (supercritical or subcritical phases), x2 = 0.9503 | 307.2 ± 2.3
322.41 K, 9006 kPa, Fluid (supercritical or subcritical phases), x2 = 0.9503 | 371 ± 3.9
322.45 K, 9501 kPa, Fluid (supercritical or subcritical phases), x2 = 0.9503 | 460.8 ± 5.1
322.46 K, 9992 kPa, Fluid (supercritical or subcritical phases), x2 = 0.9503 | 538 ± 4.1
322.46 K, 30511 kPa, Fluid (supercritical or subcritical phases), x2 = 0.9503 | 905.8 ± 0.6
322.46 K, 34988 kPa, Fluid (supercritical or subcritical phases), x2 = 0.9503 | 930.2 ± 0.6
322.46 K, 35500 kPa, Fluid (supercritical or subcritical phases), x2 = 0.9503 | 933 ± 0.6
322.46 K, 36061 kPa, Fluid (supercritical or subcritical phases), x2 = 0.9503 | 935.4 ± 0.6
322.46 K, 36509 kPa, Fluid (supercritical or subcritical phases), x2 = 0.9503 | 937.7 ± 0.6
322.46 K, 37005 kPa, Fluid (supercritical or subcritical phases), x2 = 0.9503 | 940.1 ± 0.6
322.46 K, 37561 kPa, Fluid (supercritical or subcritical phases), x2 = 0.9503 | 942.4 ± 0.6
322.47 K, 10501 kPa, Fluid (supercritical or subcritical phases), x2 = 0.9503 | 585 ± 5.5
322.47 K, 29929 kPa, Fluid (supercritical or subcritical phases), x2 = 0.9503 | 902.4 ± 0.6
322.47 K, 31027 kPa, Fluid (supercritical or subcritical phases), x2 = 0.9503 | 908.9 ± 0.6
322.47 K, 31517 kPa, Fluid (supercritical or subcritical phases), x2 = 0.9503 | 912 ± 0.6
322.47 K, 32536 kPa, Fluid (supercritical or subcritical phases), x2 = 0.9503 | 917.5 ± 0.6
322.47 K, 33070 kPa, Fluid (supercritical or subcritical phases), x2 = 0.9503 | 920.6 ± 0.6
322.47 K, 33539 kPa, Fluid (supercritical or subcritical phases), x2 = 0.9503 | 923.2 ± 0.6
322.47 K, 34062 kPa, Fluid (supercritical or subcritical phases), x2 = 0.9503 | 925.5 ± 0.6
322.47 K, 34511 kPa, Fluid (supercritical or subcritical phases), x2 = 0.9503 | 928 ± 0.6
322.47 K, 38091 kPa, Fluid (supercritical or subcritical phases), x2 = 0.9503 | 945 ± 0.6
322.47 K, 38434 kPa, Fluid (supercritical or subcritical phases), x2 = 0.9503 | 946.6 ± 0.6
322.47 K, 39200 kPa, Fluid (supercritical or subcritical phases), x2 = 0.9503 | 950 ± 0.6
322.47 K, 40947 kPa, Fluid (supercritical or subcritical phases), x2 = 0.9503 | 956.3 ± 0.6
322.48 K, 20496 kPa, Fluid (supercritical or subcritical phases), x2 = 0.9503 | 829.2 ± 1.1
322.48 K, 23049 kPa, Fluid (supercritical or subcritical phases), x2 = 0.9503 | 853.3 ± 0.9
322.48 K, 25500 kPa, Fluid (supercritical or subcritical phases), x2 = 0.9503 | 871.4 ± 0.8
322.48 K, 27026 kPa, Fluid (supercritical or subcritical phases), x2 = 0.9503 | 882.9 ± 0.8
322.48 K, 28501 kPa, Fluid (supercritical or subcritical phases), x2 = 0.9503 | 892.7 ± 0.8
322.48 K, 32039 kPa, Fluid (supercritical or subcritical phases), x2 = 0.9503 | 914.6 ± 0.6
322.48 K, 39641 kPa, Fluid (supercritical or subcritical phases), x2 = 0.9503 | 951.7 ± 0.6
322.48 K, 40153 kPa, Fluid (supercritical or subcritical phases), x2 = 0.9503 | 953.9 ± 0.6
322.48 K, 40902 kPa, Fluid (supercritical or subcritical phases), x2 = 0.9503 | 956.7 ± 0.6
322.49 K, 11003 kPa, Fluid (supercritical or subcritical phases), x2 = 0.9503 | 621.1 ± 4.3
322.49 K, 18008 kPa, Fluid (supercritical or subcritical phases), x2 = 0.9503 | 800.3 ± 1.3
322.49 K, 19008 kPa, Fluid (supercritical or subcritical phases), x2 = 0.9503 | 812.8 ± 1.1
322.49 K, 20012 kPa, Fluid (supercritical or subcritical phases), x2 = 0.9503 | 824.3 ± 1.1
322.49 K, 21007 kPa, Fluid (supercritical or subcritical phases), x2 = 0.9503 | 834.7 ± 1.1
322.49 K, 21533 kPa, Fluid (supercritical or subcritical phases), x2 = 0.9503 | 839.7 ± 1.1
322.49 K, 22009 kPa, Fluid (supercritical or subcritical phases), x2 = 0.9503 | 843.9 ± 0.9
322.49 K, 22496 kPa, Fluid (supercritical or subcritical phases), x2 = 0.9503 | 848.2 ± 0.9
322.49 K, 23500 kPa, Fluid (supercritical or subcritical phases), x2 = 0.9503 | 856.5 ± 0.9
322.49 K, 24003 kPa, Fluid (supercritical or subcritical phases), x2 = 0.9503 | 860.4 ± 0.9
